A value given as a limit tells only on which side of the number the result lay.

One experiment deals with Human betaherpesvirus 5. The experiment can be described thus: Antiviral activity against recombinant HCMV AD169 infected in human foreskin fibroblasts measured after 7 days by GFP-based multi-round replication assay relative to control. Particulars: Human betaherpesvirus 5, AD169, 168 h. The class given is functional, organism-based.
Experiment [1] addresses Epidermal growth factor receptor (Homo sapiens, UniProt P00533, T790M). The experiment can be described thus: Inhibition of EGFR T790M mutant (unknown origin).
Experiment [2] has as its target T1, Epidermal growth factor receptor (Homo sapiens, UniProt P00533).
Description: Inhibition of EGFR (unknown origin)
For experiment [3], the target named is T1, Epidermal growth factor receptor. The experiment can be described thus: Inhibition of human recombinant GST-tagged EGFR (catalytic domain 695 to end) expressed in baculovirus-infected Sf9 cells assessed as reduction in phosphorylation of polyglutamic acid/tyrosine incubated for 60 mins by ADP-Glo assay.
A short description of experiment [4]: Antiproliferative activity against human NHBE cells assessed as reduction in cell viability incubated for 72 hrs by MTT assay. Format: cell-based. (In general: Tetrazolium dyes change colour on reduction, which living cells bring about.)
Experiment [5] concerns the target Epidermal growth factor receptor (Homo sapiens, UniProt P00533, L858R/T790M). The experiment in a line: Inhibition of human recombinant GST-tagged EGFR L858R/T790M mutant (catalytic domain 695 to end) expressed in baculovirus-infected Sf9 cells assessed as reduction in phosphorylation of polyglutamic acid/tyrosine incubated for 60 mins by ADP-Glo assay. A general note: In ADP-Glo the light output rises with the ADP produced.

The target in experiment [6] is T2, Vascular endothelial growth factor receptor 2 (Homo sapiens, UniProt P35968). The experiment in a line: Inhibition of VEGFR2 in human HUVEC assessed as reduction in cell proliferation at 10 uM incubated for 72 hrs by alamarBlue assay. Format: cell-based.
Experiment [7] concerns the target T2, Vascular endothelial growth factor receptor 2. The experiment can be described thus: Inhibition of human recombinant GST-tagged VEGFR2 (catalytic domain 805 to 1356 residues) expressed in Sf9 insect cells incubated for 45 mins by Kinase-Glo assay. For orientation: In Kinase-Glo more light means more ATP remaining.
For experiment [8] the target is unchanged. The experiment can be described thus: Inhibition of VEGFR2 (unknown origin).
A further experiment concerns Plasmodium falciparum. The experiment can be described thus: Antimalarial activity against Plasmodium falciparum 3D7 infected in human erythrocytes after 72 hrs by SYBR Green1 dye based fluorescence assay relative to control. Format: functional, organism-based. To be noted: 3D7, 72 h.
The target in experiment [9] is T3, Aurora kinase A (Homo sapiens) (UniProt O14965).
T3 sequence (whole entry): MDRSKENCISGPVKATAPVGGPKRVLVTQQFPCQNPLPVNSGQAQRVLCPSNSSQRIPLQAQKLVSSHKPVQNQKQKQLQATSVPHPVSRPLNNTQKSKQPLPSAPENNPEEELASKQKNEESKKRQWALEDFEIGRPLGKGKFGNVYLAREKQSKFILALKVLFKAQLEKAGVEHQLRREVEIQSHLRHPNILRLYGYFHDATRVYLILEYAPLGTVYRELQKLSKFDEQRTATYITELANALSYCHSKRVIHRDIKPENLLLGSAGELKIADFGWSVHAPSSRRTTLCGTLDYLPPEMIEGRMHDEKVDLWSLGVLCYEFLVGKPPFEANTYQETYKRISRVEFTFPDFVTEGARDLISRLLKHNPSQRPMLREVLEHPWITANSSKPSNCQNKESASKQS
The experiment can be described thus: Inhibition of Aurora A in human MCF7 cells relative to control. The class given is cell-based. To be noted: concentration not given here.

A short description of experiment [10]: Cytotoxicity against human HKESC1 cells assessed as reduction in cell growth at 2 nM incubated for 48 and 72 hrs by MTT assay. The class given is functional.
Experiment [11] in a line: Cytotoxicity against human SLMT1 cells assessed as reduction in cell growth at 2 nM incubated for 48 and 72 hrs by MTT assay. The class given is functional.
Experiment [12] is described as follows: Cytotoxicity against human KYSE10 cells assessed as reduction in cell growth at 2 nM incubated for 48 and 72 hrs by MTT assay. The class given is functional.
A short description of experiment [13]: Cytotoxicity against human Embryonic stem cells assessed as reduction in cell growth at 2 nM incubated for 48 and 72 hrs by MTT assay. The class given is functional.
Experiment [14] is described as follows: Cytotoxicity against human HKESC2 cells assessed as reduction in cell growth at 2 nM incubated for 48 and 72 hrs by MTT assay. The class given is functional.
Experiment [15] in a line: Cytotoxicity against human EC1 cells assessed as reduction in cell growth at 2 nM incubated for 48 and 72 hrs by MTT assay. Format: functional.
The target in experiment [16] is T4, Proto-oncogene tyrosine-protein kinase Src (Homo sapiens, UniProt P12931). The experiment can be described thus: Inhibition of human recombinant Src expressed in baculovirus infected Sf9 insect cells assessed as reduction in phosphorylation of polyglutamic acid/tyrosine incubated for 15 mins by ELISA.
A short description of experiment [17]: Antitumor activity against rat FRE-erbB2 cells xenografted in CD-1 mouse assessed as tumor growth inhibition at 50 mg/kg, po after 1 hr by ELISA relative to control. To be noted: read-out: TGI. The class given is functional.
The target in experiment [18] is Vascular endothelial growth factor receptor 3 (Homo sapiens, UniProt P35916). The experiment in a line: Inhibition of VEGFR3 (unknown origin).
The target of experiment [19] is Receptor tyrosine-protein kinase erbB-4 (Homo sapiens, UniProt Q15303). The experiment in a line: Inhibition of HER4 (unknown origin).
The target in experiment [20] is T4, Proto-oncogene tyrosine-protein kinase Src. The experiment in a line: Inhibition of SRC (unknown origin).
The subject of a further experiment is DU-145. The experiment can be described thus: Antitumor activity against human DU145 cells xenografted in CB17 SCID model mouse assessed as inhibition of tumor growth at 25 mg/kg, po administered for 54 days. On the set-up: scale not given: the % may be the effect or the level left. Format: functional.
The next experiment deals with A549. The experiment can be described thus: In vivo inhibition of neo-vascularisation in human A549 cells xenografted in athymic mouse at 50 mg/kg/day, po administered for 5 days measured after 24 hrs of last dose by light microscopy. The class given is functional.

T2 sequence (P35968 whole entry, the tested form may be a part): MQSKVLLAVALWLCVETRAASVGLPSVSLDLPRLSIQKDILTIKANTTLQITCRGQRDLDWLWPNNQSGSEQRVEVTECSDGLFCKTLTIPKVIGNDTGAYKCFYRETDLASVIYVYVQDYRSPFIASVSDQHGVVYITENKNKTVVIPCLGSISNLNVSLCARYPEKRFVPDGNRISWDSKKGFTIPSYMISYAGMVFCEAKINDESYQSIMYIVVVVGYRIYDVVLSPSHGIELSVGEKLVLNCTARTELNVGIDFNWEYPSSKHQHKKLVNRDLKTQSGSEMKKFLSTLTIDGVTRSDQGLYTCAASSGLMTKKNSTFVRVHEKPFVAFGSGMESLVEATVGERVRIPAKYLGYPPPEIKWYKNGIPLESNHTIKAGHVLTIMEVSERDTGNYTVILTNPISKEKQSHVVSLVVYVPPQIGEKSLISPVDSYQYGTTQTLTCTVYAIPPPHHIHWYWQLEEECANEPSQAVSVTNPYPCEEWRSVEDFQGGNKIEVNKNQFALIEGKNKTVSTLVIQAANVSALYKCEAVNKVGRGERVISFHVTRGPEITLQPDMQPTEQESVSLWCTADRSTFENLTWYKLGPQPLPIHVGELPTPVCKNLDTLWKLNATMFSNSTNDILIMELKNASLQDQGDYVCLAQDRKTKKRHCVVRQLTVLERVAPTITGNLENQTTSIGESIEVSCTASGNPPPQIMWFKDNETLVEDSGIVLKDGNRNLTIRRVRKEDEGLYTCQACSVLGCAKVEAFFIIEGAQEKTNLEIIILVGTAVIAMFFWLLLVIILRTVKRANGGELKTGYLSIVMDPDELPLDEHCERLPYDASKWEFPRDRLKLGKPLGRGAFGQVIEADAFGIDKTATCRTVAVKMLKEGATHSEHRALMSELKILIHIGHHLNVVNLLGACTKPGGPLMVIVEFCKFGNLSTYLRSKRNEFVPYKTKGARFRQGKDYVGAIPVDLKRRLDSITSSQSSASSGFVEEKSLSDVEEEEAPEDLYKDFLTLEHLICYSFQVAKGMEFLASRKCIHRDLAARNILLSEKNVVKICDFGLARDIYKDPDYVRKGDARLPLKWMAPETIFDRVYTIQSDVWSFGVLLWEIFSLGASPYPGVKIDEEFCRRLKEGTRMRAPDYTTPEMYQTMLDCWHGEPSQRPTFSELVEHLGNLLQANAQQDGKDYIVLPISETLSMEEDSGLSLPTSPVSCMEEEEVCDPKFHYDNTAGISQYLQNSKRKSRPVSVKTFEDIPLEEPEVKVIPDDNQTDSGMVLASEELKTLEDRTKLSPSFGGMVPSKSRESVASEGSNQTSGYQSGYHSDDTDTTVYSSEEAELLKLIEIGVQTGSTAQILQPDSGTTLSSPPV
T1 sequence (P00533 whole entry, the tested form may be a part): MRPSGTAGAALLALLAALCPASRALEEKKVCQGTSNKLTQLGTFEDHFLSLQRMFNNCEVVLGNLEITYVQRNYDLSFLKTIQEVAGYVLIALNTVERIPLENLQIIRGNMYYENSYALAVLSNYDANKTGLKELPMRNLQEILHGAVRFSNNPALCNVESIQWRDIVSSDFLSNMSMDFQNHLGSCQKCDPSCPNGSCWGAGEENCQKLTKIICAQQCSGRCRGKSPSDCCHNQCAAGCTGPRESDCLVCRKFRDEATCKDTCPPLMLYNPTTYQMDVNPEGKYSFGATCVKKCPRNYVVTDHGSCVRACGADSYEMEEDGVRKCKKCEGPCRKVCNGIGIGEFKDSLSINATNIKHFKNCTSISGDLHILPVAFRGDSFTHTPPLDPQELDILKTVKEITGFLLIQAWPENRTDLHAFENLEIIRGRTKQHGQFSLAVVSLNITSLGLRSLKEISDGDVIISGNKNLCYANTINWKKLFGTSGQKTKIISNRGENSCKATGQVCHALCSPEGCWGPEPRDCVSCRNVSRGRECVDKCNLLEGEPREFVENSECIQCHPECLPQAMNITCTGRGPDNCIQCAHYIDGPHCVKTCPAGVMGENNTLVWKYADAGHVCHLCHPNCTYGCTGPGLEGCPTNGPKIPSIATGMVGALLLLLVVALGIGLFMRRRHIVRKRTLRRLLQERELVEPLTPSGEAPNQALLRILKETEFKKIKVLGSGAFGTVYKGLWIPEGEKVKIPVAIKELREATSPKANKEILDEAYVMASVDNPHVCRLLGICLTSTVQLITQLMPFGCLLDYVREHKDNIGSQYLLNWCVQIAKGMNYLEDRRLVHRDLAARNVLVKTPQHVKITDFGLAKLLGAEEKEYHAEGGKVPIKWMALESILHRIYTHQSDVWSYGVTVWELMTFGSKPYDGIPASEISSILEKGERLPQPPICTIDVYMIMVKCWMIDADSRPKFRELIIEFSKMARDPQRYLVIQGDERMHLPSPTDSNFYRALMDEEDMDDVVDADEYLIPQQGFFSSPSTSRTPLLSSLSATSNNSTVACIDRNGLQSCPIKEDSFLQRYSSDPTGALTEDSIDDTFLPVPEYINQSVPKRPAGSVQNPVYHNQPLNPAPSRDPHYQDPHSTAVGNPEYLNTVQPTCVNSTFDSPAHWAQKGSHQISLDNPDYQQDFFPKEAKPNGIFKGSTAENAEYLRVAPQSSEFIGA
Sequence of Receptor tyrosine-protein kinase erbB-4 (Q15303 whole entry): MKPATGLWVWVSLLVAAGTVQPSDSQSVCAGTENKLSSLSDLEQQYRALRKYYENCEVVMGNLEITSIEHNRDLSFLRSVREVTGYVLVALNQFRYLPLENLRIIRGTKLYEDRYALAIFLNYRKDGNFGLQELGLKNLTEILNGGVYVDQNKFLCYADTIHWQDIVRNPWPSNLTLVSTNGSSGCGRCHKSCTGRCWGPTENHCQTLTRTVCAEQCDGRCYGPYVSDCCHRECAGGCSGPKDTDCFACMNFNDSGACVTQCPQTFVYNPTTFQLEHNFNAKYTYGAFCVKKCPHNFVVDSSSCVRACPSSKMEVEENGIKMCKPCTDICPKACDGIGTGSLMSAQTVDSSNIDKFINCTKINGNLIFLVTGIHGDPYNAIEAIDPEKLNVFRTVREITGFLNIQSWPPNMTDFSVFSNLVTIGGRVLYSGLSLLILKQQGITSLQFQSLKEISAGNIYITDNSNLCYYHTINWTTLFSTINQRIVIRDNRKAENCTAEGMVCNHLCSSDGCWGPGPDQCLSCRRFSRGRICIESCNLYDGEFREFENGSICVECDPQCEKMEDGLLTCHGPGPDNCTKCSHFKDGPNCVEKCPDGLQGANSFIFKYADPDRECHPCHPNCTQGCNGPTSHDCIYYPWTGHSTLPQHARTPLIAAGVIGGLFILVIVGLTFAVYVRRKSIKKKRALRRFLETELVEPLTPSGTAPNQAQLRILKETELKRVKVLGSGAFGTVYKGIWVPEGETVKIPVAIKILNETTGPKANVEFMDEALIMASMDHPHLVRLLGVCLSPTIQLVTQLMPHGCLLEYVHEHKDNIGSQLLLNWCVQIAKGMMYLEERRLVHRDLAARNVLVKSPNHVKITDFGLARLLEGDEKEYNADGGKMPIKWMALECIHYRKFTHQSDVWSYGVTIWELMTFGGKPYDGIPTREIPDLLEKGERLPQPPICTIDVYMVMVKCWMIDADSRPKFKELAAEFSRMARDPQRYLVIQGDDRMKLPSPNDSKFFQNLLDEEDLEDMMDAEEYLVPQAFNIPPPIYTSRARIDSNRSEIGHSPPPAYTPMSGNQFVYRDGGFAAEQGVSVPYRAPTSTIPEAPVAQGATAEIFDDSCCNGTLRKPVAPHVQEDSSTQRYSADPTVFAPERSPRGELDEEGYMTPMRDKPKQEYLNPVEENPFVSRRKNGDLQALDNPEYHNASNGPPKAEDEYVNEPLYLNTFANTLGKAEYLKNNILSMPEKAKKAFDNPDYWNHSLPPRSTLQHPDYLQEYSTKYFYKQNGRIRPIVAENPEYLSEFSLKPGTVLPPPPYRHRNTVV
T4 sequence (P12931 2-536 limits assumed): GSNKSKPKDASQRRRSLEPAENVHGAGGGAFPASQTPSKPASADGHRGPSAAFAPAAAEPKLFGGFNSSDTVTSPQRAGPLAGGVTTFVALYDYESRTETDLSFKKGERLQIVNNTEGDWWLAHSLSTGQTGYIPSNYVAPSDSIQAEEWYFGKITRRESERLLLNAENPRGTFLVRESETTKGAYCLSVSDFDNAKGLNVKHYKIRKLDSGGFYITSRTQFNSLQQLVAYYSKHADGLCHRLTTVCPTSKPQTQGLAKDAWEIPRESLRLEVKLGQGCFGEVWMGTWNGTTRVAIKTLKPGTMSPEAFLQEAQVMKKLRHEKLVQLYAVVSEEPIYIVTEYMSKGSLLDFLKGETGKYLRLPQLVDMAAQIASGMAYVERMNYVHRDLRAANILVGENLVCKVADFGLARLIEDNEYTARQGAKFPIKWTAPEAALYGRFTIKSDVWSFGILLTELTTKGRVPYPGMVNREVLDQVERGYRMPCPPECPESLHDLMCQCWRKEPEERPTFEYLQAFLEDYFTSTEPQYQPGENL

For the compound `C[C@H]1[C@@H](CC(=O)Nc2ccc3ncnc(Nc4ccc(Cl)c(Cl)c4)c3c2)O[C@@H]2O[C@@]3(C)CC[C@H]4[C@H](C)CC[C@@H]1[C@@]24OO3`, the EC50 (in general, the concentration that produces a half-maximal response) in the experiment on Human betaherpesvirus 5 lay in the range of 150000 to 210000 nM.

For `C=CC(=O)Nc1ccc(Nc2ncnc3cc(OC)c(OCCN4CCOCC4)cc23)cc1`, the IC50 – broadly, the point on the concentration scale where inhibition reaches its midpoint – in [1] was 4.3 nM; in [2] it was 105 nM; in [3], 105 nM; in experiment [4], over 34000 nM; in experiment [5], 4.3 nM.

With `COc1cc2ncnc(-n3ncc4cc(NC(=O)Nc5ccc(C)c(Cl)c5)ccc43)c2cc1OC`, the inhibition – broadly, the drop in the measured response relative to a control, in per cent – in experiment [6] was in the range of 80 to 99.6%. Further, in [7], the half-maximal inhibitory concentration (IC50) was 5 nM.

On to `C=CC(=O)Nc1cc2c(Nc3ccc(Br)cc3F)ncnc2cc1OCCCC(=O)CN(C)C`, for which the IC50 in [2] amounted to 2 nM; in experiment [8], 103 nM.

As to `C[C@H]1[C@H](OC(=O)CCC(=O)Nc2ccc3ncnc(Nc4ccc(Cl)c(Cl)c4)c3c2)O[C@@H]2O[C@@]3(C)CC[C@H]4[C@H](C)CC[C@@H]1[C@@]24OO3`, the EC50 was 1.4 nM with Plasmodium falciparum and 150000 to 210000 nM in the experiment on Human betaherpesvirus 5.

`COc1cc2c(Nc3ccc(C(=O)Nc4ccccc4)cc3)ncnc2cc1O` gave an inhibition in [9] of 60%.

In the case of `CN(C)C/C=C/C(=O)Nc1cc2c(Nc3ccc(F)c(Cl)c3)ncnc2cc1O[C@H]1CCOC1` [AFATINIB], the inhibition at 0.002 µM in experiment [10], in experiment [11], in experiment [12], in experiment [13], in experiment [14] and in [15] was over 95% throughout.

Consider `COc1ccc(Cl)c(Nc2ncnc3cc(OCC4CCN(C)CC4)c(OC)cc23)c1` [AZM-475271], for which the IC50 in [16] stood at 5 nM.

In the case of `COCC(=O)NC/C=C/c1ccc2ncnc(Nc3ccc(Oc4ccc(C)nc4)c(C)c3)c2c1` [CP-724714], in [17], the inhibition in vivo at 50 mg/kg came out at 50%.

With `COc1cc2ncnc3c2cc1OCCCCCN(C)Cc1ccc(Br)cc1N3` [JNJ-26483327], the IC50 in [18] is 11 to 99 nM; in experiment [19] it was 11 to 99 nM; in [2], under 10 nM; in [20], 11 to 99 nM.

Turning to `CN1CCN(CCOc2cc(OC3CCOCC3)c3c(Nc4c(Cl)ccc5c4OCO5)ncnc3c2)CC1` [SARACATINIB], the Activity in the experiment with DU-145 worked out at 45%.

In the experiment on A549, `COc1cc2/c(=N/c3ccc(Br)cc3F)nc[nH]c2cc1OCC1CCN(C)CC1` [VANDETANIB] had an inhibition in vivo at 50 mg/kg/day of 63%.

As to `C[C@@H]1COC(Nc2ccc3ncnc(Nc4ccc(OCc5nccs5)c(Cl)c4)c3c2)=N1` [VARLITINIB], inhibition in experiment [19] was half-maximal at 4 nM (IC50).

These data come from ChEMBL document CHEMBL4342409, “Recent advancements of 4-aminoquinazoline derivatives as kinase inhibitors and their applications in medicinal chemistry” (Eur J Med Chem, 2019).
